Here are results for nine compounds from US8796289B2 (AbbVie Inc., priority 2011, dated 2014).

GST-tagged-Wee1 kinase, sequence (P30291 whole entry): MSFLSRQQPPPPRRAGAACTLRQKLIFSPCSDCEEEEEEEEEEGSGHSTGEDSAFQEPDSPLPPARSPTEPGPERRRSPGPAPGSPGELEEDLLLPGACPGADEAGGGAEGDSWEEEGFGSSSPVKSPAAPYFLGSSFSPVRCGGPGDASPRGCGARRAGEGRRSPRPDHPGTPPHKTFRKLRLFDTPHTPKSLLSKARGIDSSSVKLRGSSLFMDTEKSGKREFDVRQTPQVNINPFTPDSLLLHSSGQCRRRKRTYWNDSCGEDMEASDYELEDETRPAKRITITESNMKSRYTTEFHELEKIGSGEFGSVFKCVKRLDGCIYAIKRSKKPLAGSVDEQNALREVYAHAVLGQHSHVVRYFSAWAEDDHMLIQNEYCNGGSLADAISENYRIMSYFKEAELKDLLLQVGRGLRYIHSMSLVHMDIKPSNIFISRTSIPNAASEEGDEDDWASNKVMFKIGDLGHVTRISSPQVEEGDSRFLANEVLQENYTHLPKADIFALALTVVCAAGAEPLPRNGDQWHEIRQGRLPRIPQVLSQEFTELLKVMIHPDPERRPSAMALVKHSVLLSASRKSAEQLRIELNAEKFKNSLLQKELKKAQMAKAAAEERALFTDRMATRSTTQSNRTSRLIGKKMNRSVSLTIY

The assay addresses GST-tagged-Wee1 kinase (Homo sapiens, UniProt P30291). Kind of assay: Wee1 time-resolved fluorescence equilibrium binding assay (displacement of Oregon Green-labeled ATP-competitive kinase probe). Here is the method:
Wee1 kinase was assayed using a time-resolved fluorescence equilibrium binding assay monitoring displacement of a rapidly reversible Oregon Green-labeled ATP-competitive kinase probe (N-(2-(2-(2-(4-(4-(5-chloro-4-(2-(1-hydroxycyclobutyl)thiazol-5-yl)-1H-pyrrolo[2,3-b]pyridin-2-yl)phenyl)piperazin-1-yl)ethoxy)ethoxy)ethyl)-2′,7′-difluoro-3′,6′-dihydroxy-3-oxo-3H-spiro[isobenzofuran-1,9′-xanthene]-5-carboxamide) by competitive Wee1 inhibitors.
The Ki is a dissociation constant, usually derived from enzyme kinetics or from competition with a known ligand. In turn, `Cc1nn(-c2c(F)cccc2Cl)c(=O)c2cnc(Nc3ccc(N4CCNCC4)cc3)nc12` [Example 396, 6-(2-chloro-6-fluorophenyl)-8-methyl-2-{[4-(piperazin-1-yl)phenyl]amino}pyrimido[4,5-d]pyridazin-5(6H)-one] registered an inhibition constant (Ki) of 1 nM.

In turn, `Cc1nn(-c2c(Cl)cccc2Cl)c(=O)c2cnc(Nc3ccc4c(c3)CN(C(N)=O)CC43CC3)nc12` [Example 416, 7′-{[6-(2,6-dichlorophenyl)-8-methyl-5-oxo-5,6-dihydropyrimido[4,5-d]pyridazin-2-yl]amino}-1′H-spiro[cyclopropane-1,4′-isoquinoline]-2′(3′H)-carboxamide] registered a Ki of 0.19 nM.

On to `CN1CCN(c2ccc(Nc3ncc4c(=O)n(-c5c(Cl)cccc5Cl)nc(-c5cccc(-c6c[nH]cn6)c5)c4n3)cc2)CC1` [Example 91, 6-(2,6-dichlorophenyl)-8-[3-(1H-imidazol-4-yl)phenyl]-2-{[4-(4-methylpiperazin-1-yl)phenyl]amino}pyrimido[4,5-d]pyridazin-5(6H)-one], for which the Ki worked out at 0.3 nM.

As for `CN1CCN(c2ccc(Nc3ncc4c(=O)n(-c5c(Cl)cccc5Cl)nc(-c5cccc(F)c5)c4n3)cc2)CC1` [Example 84, 6-(2,6-dichlorophenyl)-8-(3-fluorophenyl)-2-{[4-(4-methylpiperazin-1-yl)phenyl]amino}pyrimido[4,5-d]pyridazin-5(6H)-one], the Ki amounted to 0.1 nM.

`O=c1c2cnc(Nc3ccc4c(c3)CNCC4)nc2c(C(F)F)nn1-c1c(Cl)cccc1Cl` [Example 410, 6-(2,6-dichlorophenyl)-8-(difluoromethyl)-2-(1,2,3,4-tetrahydroisoquinolin-7-ylamino)pyrimido[4,5-d]pyridazin-5(6H)-one] displayed a Ki of 1 nM.

The compound `Cc1ccccc1-n1nc(-c2ccccc2)c2nc(Nc3ccc4c(c3)CN(C)CC43CC3)ncc2c1=O` [Example 173, 2-[(2′-methyl-2′,3′-dihydro-1′H-spiro[cyclopropane-1,4′-isoquinolin]-7′-yl)amino]-6-(2-methylphenyl)-8-phenylpyrimido[4,5-d]pyridazin-5(6H)-one] gave a Ki of 0.4 nM.

In turn, `CN1CCN(c2ccc(Nc3ncc4c(=O)n(-c5c(Cl)cccc5Cl)nc(CO)c4n3)cc2)CC1` [Example 431, 6-(2,6-dichlorophenyl)-8-(hydroxymethyl)-2-{[4-(4-methylpiperazin-1-yl)phenyl]amino}pyrimido[4,5-d]pyridazin-5(6H)-one] yielded a Ki of 0.42 nM.

Compound `CN1CCN(c2ccc(Nc3ncc4c(=O)n(-c5c(Cl)cccc5Cl)nc(-c5ccn(C)n5)c4n3)cc2)CC1` [Example 151, 6-(2,6-dichlorophenyl)-2-{[4-(4-methylpiperazin-1-yl)phenyl]amino}-8-(1-methyl-1H-pyrazol-3-yl)pyrimido[4,5-d]pyridazin-5(6H)-one] registered a Ki of 0.07 nM.

For `Cc1nn(-c2c(Cl)cccc2Cl)c(=O)c2cnc(Nc3ccc(C4CCCNC4)cc3)nc12` (stereo not drawn) [Example 459, 6-(2,6-dichlorophenyl)-8-methyl-2-{[4-(piperidin-3-yl)phenyl]amino}pyrimido[4,5-d]pyridazin-5(6H)-one], affinity was put at a Ki of 0.17 nM.
